Experimental findings from paper PMC8205030, “Methoxy and bromo scans on N-(5-methoxyphenyl) methoxybenzenesulphonamides reveal potent cytotoxic compounds, especially against the human breast adenocarcinoma MCF7 cell line” (Journal of Enzyme Inhibition and Medicinal Chemistry, 2021) are described below.

The subject of assay [1] is MCF7 cells. Kind of assay: Apoptotic cell death quantification (Annexin V-FITC/PI), MCF7. The class given is cell-based, human. The note with it: 72 h. How it is done: MCF7, HeLa, and HT-29 apoptotic cells were quantified using an Annexin V-FITC/PI apoptosis detection kit (Immunostep, Salamanca, Spain) according to the manufacturer’s guidelines. 1.5 ml/well of cells in the exponential growth phase at 2 × 10^4 cells/mL were seeded onto 12-well plates and left to attach overnight. After 24 h incubation, cells were treated with compound 25 at 87.5 or 175 nM. 72 h post-treatment, attached and floating cells of treated and untreated wells were collected, centrifuged, resuspended in the Annexin V binding buffer, and stained with Annexin V-FITC/PI. Cells were then incubated in darkness at room temperature for 15 min and a total of 30,000 cells were acquired and analysed using the BD Accuri™ C6 Plus Flow Cytometer and Software (version 1.0.264.21, BD Biosciences, San José, CA, USA), respectively. Compounds were dissolved in DMSO and the final solvent concentrations never exceeded 0.5% (v/v). Control wells included cells with 0.5% (v/v) DMSO.

Assay [2] relates to p-62 in MCF7 cells. Kind of assay: Western blot of autophagosome marker p-62, MCF7. The class given is cell-based, human. The settings on record: MCF7, 175 nM, 24 h. How it is done: MCF7, HeLa and HT-29 cells in an exponential growth phase at 2 × 10^4 cells/mL were seeded in Petri dishes (20 × 100 mm) (10 ml/dish). After 24 h incubation, cells were treated with compound 25 at 175 nM, and the levels of p-62 in treated and untreated cells were measured at 24 h post-treatment. The culture medium was removed, cells were washed with PBS and resuspended in 1 ml lysis buffer (50 mM Tris, 130 mM NaCl, 1 mM EDTA, 1% Triton X-100) containing protease inhibitors (Complete, Roche Applied Science, Indianapolis). Cells were harvested and incubated with lysis buffer for 30 min at 4 °C in constant agitation. Cell extracts were centrifuged at 12,000 rpm for 15 min at 4 °C and the supernatants were stored at −80 °C. Protein concentrations were determined using Bradford (BioRad, Hercules, CA) method taking BSA (Bovine Serum Albumin) as standard. Protein extracts were used for electrophoresis mixing with loading buffer (4% SDS, 0.05% bromophenol blue, 20% glycerine, 2% β-mercaptoethanol, and Tris 100 mM at pH 6.8). Proteins were then denatured at 95 °C for 7 min. Protein samples (50 μg/lane) were subjected to electrophoresis on 8% acrylamide gel and SDS-PAGE running buffer at constant voltage (140 V). Then, acrylamide gels were transferred to a PVDF membrane (Merck Millipore, Burlington, Massachusetts, USA) using a semi-dry transfer system for 30 min at constant voltage (15 V). […]
For orientation: Immunoblotting shows a protein as a band on a membrane.

Molecules are shown by their SMILES.

`COc1ccc(S(=O)(=O)N(CC#N)c2cc(OC)c(Br)cc2OC)cc1` [Compound 25, N-(4-bromo-2,5-dimethoxyphenyl)-N-(cyanomethyl)-4-methoxybenzenesulphonamide]: in assay [1] (MCF7, 87.5 nM), the Early apoptosis is 11.7%, the Late apoptosis was found to be 5.8%, the “Live (AnV–/PI–)” value came to 82.1% and the Necrosis was determined as 0.5%. In assay [1] (MCF7, 175 nM), the Apoptotic cells came to 33%, the Early apoptosis was 23.8%, the Late apoptosis amounted to 9.5% and the “Live (AnV–/PI–)” value came to 65.7%. This compound showed a Necrosis in assay [1] (MCF7, 175 nM) of 1.0%. In assay [1] (MCF7, lowest concentration (87.5 nM)), this compound displayed an Apoptotic cells of 18%. Further, in assay [2], the p-62 levels result is listed as “decay in p-62 levels”.
